In ChEMBL document CHEMBL1124124, “Synthesis and interaction with uridine phosphorylase of 5'-deoxy-4',5-difluorouridine, a new prodrug of 5-fluorouracil” (J Med Chem, 1988):

Columns and labels:
[1] = tested on: L1210; test: Inhibition of cell growth of L1210 mouse Leukemia cells; type: functional, cell-based
[2] = Half life at pH 7.5; type: ADME; settings: buffer
[3] = Half life at pH 1; type: ADME; settings: buffer
[4] = Half life at pH 7.5; Not detectable hydrolysis after 7 days; type: ADME; settings: buffer, pH 7.5, 168 h

| SMILES | IC50 [1] [nM] | half-life [2] [h] | half-life [3] [h] | T1/2 [4] |
| --- | --- | --- | --- | --- |
| C[C@@]1(F)OC(n2cc(F)c(=O)[nH]c2=O)[C@H](O)[C@@H]1O (some centres not stated) | 300 | 12 | 0.5 | – |
| C[C@H]1O[C@@H](n2cc(F)c(=O)[nH]c2=O)[C@H](O)[C@@H]1O [DOXIFLURIDINE] | 3000 | – | 250 | No detectable hydrolysis |
| O=c1[nH]cc(F)c(=O)[nH]1 [FLUOROURACIL] | 300 | – | – | – |
